The source of these data is PubChem BioAssay (NCI).

“And” between values parts separate entries of the source, which are not always exact repeats. Equal values may be shown once.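 The compound was tested at five concentrations on cells cultured in 96-well plates, with a 48-hour exposure period. GI50 is the concentration that inhibits growth by half. TGI marks complete inhibition of growth.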

Holding throughout (assay): inhibition of tumour cell growth, NCI panel, 48 h
For assay [1], the system named is TK-10 renal.
The subject of assay [2] is MALME-3M melanoma.
Assay [3] concerns SF-268 CNS.
Assay [4] deals with RPMI-8226 leukemia.
Assay [5] concerns HT29 colon.
The test system of assay [6] is NCI-H23 lung.
For assay [7], the system named is SK-OV-3 ovarian.
In assay [8] the test system is SR leukemia.
Assay [9] deals with CCRF-CEM leukemia.
Assay [10] concerns NCI-H522 lung.

As for `CC/C(=N\Nc1nc2ccccc2n1C)c1ccccn1`, the GI50 is 0.5 µM in assay [1]; 0.127 µM in assay [2]; 0.194 µM in assay [3]; 0.033 µM in [4]; less than 0.0269 µM in assay [5]; 0.0452 µM in [6]. Further, the GI50 is 0.064 µM in assay [7], 0.0428 µM in assay [8], 0.0294 µM in [9] and 0.0392 µM in [10]. The TGI in [1] is 12.3 µM; in [2], 10.3 µM; in assay [3] it was 11.1 µM; in assay [4], 6.29 µM; in [5] it was 18 µM; in [6], 17.6 µM. Moreover, the TGI in assay [7] was 1.58 µM; in assay [8], 12.4 µM; in [9] it was greater than 36 µM; in assay [10], 2.33 µM.

On to `N#Cc1ccc(Oc2nccc(-c3c(-c4ccc(F)cc4)ncn3C3CCNCC3)n2)cc1`, for which the GI50 in [1] is greater than 25 µM; in assay [2], greater than 16.6 µM; in assay [3], 24.6 µM; in assay [4], 12.1 µM; in assay [5], 3.76 µM; in assay [6], greater than 25 µM. Besides, the GI50 is greater than 25 µM in assay [7], 4.54 µM in [8], 7.79 µM in assay [9] and greater than 11.9 µM in assay [10]. Moreover, the TGI in assay [1] was greater than 25 µM; in [2], greater than 25 µM; in assay [3], greater than 25 µM; in [4], greater than 25 µM; in assay [5], 8.03 µM; in assay [6] it was greater than 25 µM. For the same molecule, the TGI in [7] is greater than 25 µM; in assay [8], 11.3 µM; in assay [9], 24.7 µM; in assay [10], greater than 15.6 µM.

Regarding `COc1cc2c(cc1OCCCCNC(=O)c1cc3ccccc3[nH]1)N=CC1CCCN1C2=O` (configuration not stated), the GI50 in [1] is 14.7 µM; in assay [2] it was 20 µM; in assay [3], 4.4 µM; in assay [4], 5.67 µM; in assay [5] it was 32.6 µM; in [6], 28.4 µM. Further, the GI50 in assay [7] was 29.9 µM; in [8], greater than 100 µM; in [9], 3.45 µM; in assay [10] it was 4.43 µM. For the same molecule, the TGI in assay [1] is 33.6 µM; in assay [2] it was 47.7 µM; in assay [3] it was 28 µM; in [4] it was 96.3 µM; in assay [5] it was greater than 100 µM; in assay [6] it was greater than 100 µM. Also, the TGI was 83.6 µM in assay [7], greater than 100 µM in [8], greater than 100 µM in [9] and 79.9 µM in assay [10].

In the case of `C=C1C(=O)OC2CCCCC3OC3C12` (configuration not stated), the TGI in assay [1] was 26.7 µM; in assay [2], 23.1 µM; in [3] it was 31.1 µM; in assay [4] it was 27.4 µM; in assay [5] it was 32.2 µM; in assay [6], 32.6 µM. The TGI in assay [7] came to 32 µM; in [8], 53.1 µM; in assay [9], 20.2 µM; in assay [10], 3.91 µM.

For the molecule `CCCCCCN(CCCCCC)CCCNc1nccc2ccccc12`, the GI50 was 1.47 µM in assay [1]; 1.94 µM in assay [2]; 2.53 µM in [3]; 1.73 µM in assay [4]; 0.513 µM in assay [5]; 1.8 µM in assay [6]. The GI50 in assay [7] is 2.09 µM; in assay [8], 1.65 µM; in [9], 2.47 µM; in [10] it was 1.44 µM. Moreover, the TGI in [1] amounted to 3.02 µM; in [2] it was 3.91 µM; in assay [3], 8.51 µM; in [4] it was 4.11 µM; in assay [5] it was 1.95 µM; in [6], 3.83 µM. The TGI was determined as 5.03 µM in [7], 4.6 µM in assay [8], 10.7 µM in assay [9] and 3.23 µM in assay [10].

On to `c1cncc(CNc2ccccc2-c2nnc(Nc3ccc4c(c3)OCO4)o2)c1`, for which the GI50 in [1] was 1.18 µM; in assay [2], 0.0744 µM; in [3], 0.407 µM; in [4] it was 0.16 µM; in assay [5] it was 0.037 µM; in assay [6], 0.0662 µM. Also, the GI50 in assay [7] is 0.0914 µM; in assay [8], 0.0361 µM; in assay [9], 0.0801 µM; in [10], 0.0247 µM. Further, the TGI in assay [1] is greater than 46.8 µM; in assay [2], greater than 100 µM; in assay [3] it was greater than 100 µM; in assay [4], greater than 100 µM; in assay [5] it was 1.27 µM; in assay [6], greater than 100 µM. In addition, the TGI was 7.81 µM in assay [7], greater than 100 µM in [8], greater than 100 µM in assay [9] and 0.0709 µM in assay [10].

Take `COc1cccc(Nc2nc(NNC(=O)Cc3ccccc3)nc(NNC(=O)c3ccncc3)n2)c1`: the GI50 in [1], in assay [2], in assay [3], in assay [4], in [6] and in assay [7] was greater than 100 µM throughout. For the same molecule, the GI50 in [9] was greater than 100 µM. For the same molecule, the TGI in assay [1], in assay [2], in assay [3], in assay [4], in assay [5] and in assay [6] was greater than 100 µM in each case. The TGI in [7], in assay [8], in [9] and in assay [10] was greater than 100 µM throughout.

In the case of `O=C1Cc2cc(CCn3ccnc3)c(Cl)cc2N1`, the GI50 was greater than 100 µM in [1]; 79.5 µM in [2]; 11.2 µM in assay [3]; 46.2 µM in assay [4]; greater than 100 µM in assay [5]; 40.8 µM in [6]. Further, the GI50 was 18.1 µM in assay [7], 9.24 µM in assay [8], 3.37 µM in [9] and 4.74 µM in [10]. Further, the TGI in [1], in assay [2], in [3], in assay [4], in [5] and in assay [6] was greater than 100 µM throughout. The TGI is greater than 100 µM in assay [7], greater than 100 µM in [8], greater than 100 µM in assay [9] and 47.9 µM in assay [10].

With `O=C(CCCn1c2c(sc3ncccc32)c(=O)n2nnc(-c3ccccc3)c12)NCCc1cnc[nH]1`, the GI50 is 13.6 µM in assay [1]; 18.1 µM in assay [2]; 11.7 µM in assay [3]; 5.15 µM in assay [4]; 3.89 µM in assay [5]; 14.5 µM in assay [6]. Also, the GI50 is 14.3 µM in assay [7], 2.52 µM in assay [8], 0.222 µM in assay [9] and 2.95 µM in assay [10]. For the same molecule, the TGI in assay [1] stood at 27.9 µM; in [2] it was 37 µM; in [3], 29.1 µM; in assay [4], 35.7 µM; in assay [5], 54.9 µM; in assay [6], 32.2 µM. The TGI in [7] came to 27.7 µM; in assay [8], 6.14 µM; in assay [9], 4.48 µM; in [10], 23 µM.

For `O=C(c1cc2ccccc2[nH]1)C(O)(c1cc2ccccc2[nH]1)c1cc2ccccc2[nH]1`, the TGI in [1], in assay [2], in assay [3], in [4], in assay [5] and in assay [6] was greater than 246 µM throughout. Also, the TGI in assay [7], in assay [8], in [9] and in assay [10] was greater than 246 µM each time.

With `OC(c1ccccc1)(c1ccccc1)c1ccccn1`, the TGI in assay [1], in [2], in assay [3], in assay [4], in assay [5] and in assay [6] was greater than 100 µM in each case. Besides, the TGI in [7], in [8], in assay [9] and in assay [10] was greater than 100 µM each time.

As to `CCCOc1ccc(/C(Cl)=C(\C=O)c2ccc(OC)c(OC)c2)cc1OCCC`, the TGI in assay [1] is 94.3 µM; in assay [2] it was 38.8 µM; in assay [3], greater than 100 µM; in assay [4], greater than 100 µM; in assay [5] it was 18.5 µM; in assay [6] it was 21.6 µM. Besides, the TGI in [7] was greater than 100 µM; in [8], 12 µM; in [9], greater than 100 µM; in [10] it was 6.12 µM.

For `COC(=O)[C@]12CC[C@@H](C)[C@H](C)[C@@H]1C1=CC[C@@H]3[C@@]4(C)C[C@@H](OC(=O)c5ccco5)[C@H](O)[C@@](C)(CO)[C@@H]4[C@H](O)C[C@@]3(C)[C@]1(C)CC2`, the GI50 is 2.49 µM in assay [1]; 2.15 µM in assay [2]; 3.26 µM in assay [3]; 2.55 µM in assay [4]; 1.8 µM in assay [5]; 2.42 µM in [6]. Further, the GI50 in [7] was 3.95 µM; in assay [8] it was 1.99 µM; in [9] it was 2.41 µM; in assay [10], 1.82 µM. The TGI in assay [1] was 7.85 µM; in assay [2], 4.3 µM; in assay [3], 14.2 µM; in [4], 7.56 µM; in assay [5], 3.41 µM; in assay [6], 6.66 µM. Further, the TGI in assay [7] came out at 11.9 µM; in [8], 4.68 µM; in [9], 5.77 µM; in assay [10], 3.96 µM.

As to `CCCNc1nc(N(C)O)nc(N(C)O)n1`, the GI50 in assay [1] is 1.44 µM; in [2], 2.96 µM; in [3], 1.39 µM; in assay [4] it was 0.689 µM; in [5], 4.53 µM; in assay [6] it was 4.73 µM. The GI50 in [7] is 3.46 µM; in assay [8], 0.149 µM; in assay [9], 0.432 µM; in assay [10], 1.11 µM. Besides, the TGI in [1] is greater than 100 µM; in assay [2] it was 32.5 µM; in assay [3], greater than 56.6 µM; in assay [4] it was 4.46 µM; in assay [5] it was greater than 100 µM; in assay [6], greater than 100 µM. Also, the TGI in assay [7] was greater than 100 µM; in [8], greater than 30.1 µM; in assay [9], 5.46 µM; in assay [10], 7.3 µM.

In the case of `N/C(=N\O)c1ncc(-c2ccc(C(F)(F)F)cc2)c(NC2CCCCCC2)n1`, the GI50 in assay [1] was 2.49 µM; in assay [2], 3.81 µM; in assay [3], 3.64 µM; in [4] it was 8.66 µM and 2.66 µM; in assay [5], 3.24 µM; in [6] it was 3.76 µM. For the same molecule, the GI50 is 7.05 µM in [7]; 4.49 µM and 1.52 µM in assay [8]; 2.46 µM in assay [9]; 1.92 µM in assay [10]. Moreover, the TGI turned out to be 9.73 µM in assay [1]; 13.9 µM in assay [2]; 15.7 µM in [3]; 9.54 µM in assay [4]; 10.4 µM in [5]; 16.3 µM in assay [6]. The TGI in assay [7] was found to be 20.8 µM; in assay [8], 6.68 µM; in [9], 11.8 µM; in assay [10], 7.69 µM.

In the case of `C/C=C/C=N/N(c1nnc(-c2ccccc2)c(-c2ccccc2)n1)S(=O)(=O)c1ccc(C)cc1`, the TGI in assay [1] turned out to be 28.2 µM; in assay [2], 22.8 µM; in [3] it was 18 µM; in assay [4] it was 36.6 µM; in [5], 24.1 µM; in assay [6] it was 29.7 µM. For the same molecule, the TGI in [7] turned out to be 33.8 µM; in [8], 21.1 µM; in assay [9], 9.21 µM; in [10], 19.4 µM.

In the case of `CC(C)(O)[C@@H]1CCC(C)([C@H]2[C@@H](O)CC3(C)C4CC(OC5OC(CO)C(O)C(O)C5O)C5C(C)(C)[C@@H](OC6OCC(O)C(O)C6O)CC[C@@]56C[C@@]46CC[C@]23C)O1` (some centres not stated), the TGI in assay [1], in assay [2], in assay [3], in [4], in assay [5] and in [6] was greater than 100 µM throughout. Further, the TGI in assay [7], in [8], in assay [9] and in assay [10] was greater than 100 µM throughout.
